The results in this text go back to PubChem BioAssay (NCI).

Holding throughout (test): NCI anticancer screen, dose series, 48 h
Assay [1] deals with OVCAR-8 ovarian.
Assay [2] concerns MCF7 breast.
The test system of assay [3] is SF-268 CNS.
The subject of assay [4] is NCI-H226 lung.
Assay [5] relates to HCC-2998 colon.
Assay [6] relates to RPMI-8226 leukemia.
In assay [7] the test system is BT-549 breast.
In assay [8] the test system is ACHN renal.
The subject of assay [9] is IGROV1 ovarian.
The subject of assay [10] is T-47D breast.
Assay [11] deals with HCT-15 colon.
For assay [12], the system named is NCI-H460 lung.
Assay [13] deals with MDA-N.
Assay [14] concerns DU-145 prostate.
The test system of assay [15] is SK-MEL-5 melanoma.
Assay [16] deals with M14 melanoma.
The subject of assay [17] is NCI-H23 lung.
Assay [18] deals with TK-10 renal.
The test system of assay [19] is LOX IMVI melanoma.

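Five concentrations, 48 hours, 96-well plates. TGI: total growth inhibition.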 Where a SMILES comes first, the peptide text is derived from it. The star is where a group is joined. Boc = CC(C)(C)OC(=O)*

As for `CN[C@@H](C)[C@H](OP(=O)(O)OC1[C@@H](O)[C@H](O)C(O)[C@H](O)[C@@H]1O)c1ccccc1` (some centres undefined), the TGI in assay [1], in [2], in assay [3], in assay [4], in [5] and in assay [6] was > 100 µM each time. The TGI in assay [7], in assay [8], in assay [9], in [10], in assay [11] and in [12] was > 100 µM each time. The TGI in assay [13], in assay [14], in [15], in assay [16], in assay [17] and in [18] was > 100 µM each time.
With `Cc1ccc(Nc2sc(C)cc2C#N)c([N+](=O)[O-])c1`, the TGI in [1], in [2], in [3], in assay [4], in assay [5] and in assay [6] was > 100 µM in each case. For the same compound, the TGI in assay [7], in assay [8], in assay [10], in [11], in assay [12] and in [13] was > 100 µM throughout. Further, the TGI in assay [14], in assay [16] and in assay [17] was > 100 µM in each case.
For `CSc1nncc2[nH]cnc12`, the TGI in [1], in assay [2], in assay [3], in assay [4], in assay [6] and in [7] was > 100 µM each time. Moreover, the TGI in assay [8], in assay [9], in assay [10], in assay [11], in assay [12] and in assay [13] was > 100 µM in each case. Also, the TGI in assay [14], in assay [15], in assay [16], in assay [17] and in [18] was > 100 µM each time.
For `O=C(N/N=C\c1ccc([N+](=O)[O-])cc1)c1ccccc1Nc1ccccc1C(=O)N/N=C/c1ccc([N+](=O)[O-])cc1`, the TGI in assay [1], in [2], in assay [3], in [4], in assay [5] and in [6] was > 100 µM throughout. Moreover, the TGI in [7], in [8], in assay [9], in assay [10], in assay [11] and in assay [12] was > 100 µM each time. Also, the TGI was > 100 µM in assay [13]; > 100 µM in assay [14]; > 100 µM in assay [15]; 79.7 µM in assay [16]; > 100 µM in assay [17]; > 100 µM in assay [18].
`CN(C)CCNC(=O)c1ccc(NCCCN(C)CCCNc2ccc(C(=O)NCCN(C)C)c3[nH]c4ccc([N+](=O)[O-])cc4c(=O)c23)c2c(=O)c3cc([N+](=O)[O-])ccc3[nH]c12`: the TGI was found to be 1.3 µM in assay [1]; 0.655 µM in assay [2]; 0.254 µM in assay [5]; 0.151 µM in assay [6]; 0.206 µM in assay [19]; 2.64 µM in assay [7]. Further, the TGI in assay [8] is 1.5 µM; in assay [9], 0.389 µM; in [10] it was 2.55 µM; in assay [11] it was 1.8 µM; in assay [12] it was 0.169 µM; in assay [13], 0.997 µM. Moreover, the TGI in assay [14] is 0.641 µM; in assay [15], 1.14 µM; in assay [16] it was 2.09 µM; in [17], 0.537 µM; in assay [18], 1.38 µM.
With `CC1C(c2ccc3c(c2)OCO3)c2cc3c(cc2OC1N1CCCCC1)OCO3` (centres undefined), the TGI in assay [1], in assay [2], in assay [3], in [5], in [6] and in assay [19] was > 100 µM in each case. The TGI is > 100 µM in assay [8]; > 100 µM in assay [9]; > 100 µM in assay [10]; > 100 µM in [11]; > 100 µM in assay [12]; 48.6 µM in assay [13]. Moreover, the TGI in [14], in [15], in assay [16], in assay [17] and in [18] was > 100 µM each time.
With `CSc1ccc(/C=C2\N=C(c3ccccc3)N(c3nc4c(Cl)cc(Cl)cc4s3)C2=O)cc1`, the TGI in assay [1] was > 100 µM; in assay [2] it was > 100 µM; in assay [3], 86.3 µM; in [5], 94 µM; in assay [6] it was > 100 µM; in assay [19] it was 82.1 µM. In addition, the TGI is 63.5 µM in assay [7]; 68.5 µM in assay [8]; > 100 µM in assay [9]; 98.4 µM in [10]; > 100 µM in assay [11]; > 100 µM in [12]. Further, the TGI was 36.1 µM in assay [13]; 93.7 µM in assay [14]; 34.9 µM in assay [15]; 62.9 µM in assay [16]; > 100 µM in [18].
Consider `N#CC(N=Nc1ccccc1)c1nc2ccccc2o1` (centres undefined), for which the TGI was 79.4 µM in assay [1]; > 100 µM in [2]; 59.9 µM in assay [3]; > 100 µM in assay [4]; > 100 µM in [5]; > 100 µM in assay [6]. The TGI in assay [7] is 46 µM; in assay [8], 56.4 µM; in assay [9], 42.9 µM; in assay [10] it was 39.9 µM; in [11] it was > 100 µM; in assay [12], > 100 µM. Besides, the TGI was > 100 µM in assay [13]; 72.4 µM in assay [14]; > 100 µM in assay [15]; > 100 µM in assay [16]; 43.9 µM in assay [17]; 58.3 µM in assay [18].
Regarding `O=c1c(-c2ccccc2Cl)coc2cc(F)ccc12`, the TGI is > 100 µM in assay [1]; > 100 µM in assay [2]; > 100 µM in assay [3]; > 100 µM in assay [4]; 35.3 µM in assay [19]; 48.5 µM in assay [7]. In addition, the TGI in [8] was > 100 µM; in assay [9] it was 51.5 µM; in [10] it was > 100 µM; in [11], > 100 µM; in [12], > 100 µM; in assay [13], 25 µM. The TGI is 83.9 µM in assay [14]; > 100 µM in [15]; 55.6 µM in assay [16]; > 100 µM in [17]; > 100 µM in [18].
Take `O=c1c(O)c(-c2cc(O)c(O)cc2O)oc2cc(O)c(C3OC(CO)C(O)C(O)C3O)c(O)c12` (centres undefined): the TGI in assay [1], in assay [2], in assay [3], in assay [4], in [6] and in [19] was > 100 µM throughout. Further, the TGI in assay [7], in assay [8], in [9], in [10], in [11] and in assay [12] was > 100 µM throughout. Also, the TGI in assay [13], in assay [14], in [16] and in assay [18] was > 100 µM throughout.
`COC(=O)[C@H](Cc1ccccc1)NP(=O)(O)OCC1OC(n2cc(C)c(=O)[nH]c2=O)CC1N=[N+]=[N-]` (some centres undefined): the TGI in [1], in assay [2], in [3], in assay [4], in assay [5] and in assay [6] was > 100 µM in each case. The TGI in assay [19], in [8], in [9], in assay [10], in assay [11] and in assay [12] was > 100 µM in each case. Further, the TGI in assay [13], in assay [14], in assay [15], in assay [16], in assay [17] and in assay [18] was > 100 µM throughout.
In the case of `COc1ccc(N=C2C(=Nc3ccc(OC)cc3)N(S(=O)(=O)c3ccccc3)C(=S)N2c2ccc(OC)cc2)cc1`, the TGI in assay [1], in [2], in assay [3], in assay [4], in assay [5] and in assay [6] was > 100 µM each time. In addition, the TGI in [7], in [8], in [9], in assay [10], in [11] and in assay [13] was > 100 µM each time. For the same compound, the TGI in assay [14], in assay [15], in assay [16], in [17] and in [18] was > 100 µM in each case.
On to `CC1(C)N=C(/C=N/O)C(C)(C)N1O`, for which the TGI in assay [1], in assay [2], in assay [3], in assay [4], in assay [5] and in assay [6] was > 100 µM each time. The TGI in assay [19], in [8], in [9], in assay [10], in assay [11] and in assay [12] was > 100 µM each time. Further, the TGI in [13], in [14], in assay [15], in assay [16], in assay [17] and in assay [18] was > 100 µM each time.
As for `CCOCC(NC(=O)C(CC(C)C)NC(=O)OC(C)(C)C)C(N)=O` (stereo not drawn) (Boc-Leu-Ser(Et)-NH2; configuration not given here), the TGI in assay [1], in [2], in assay [3], in [4], in [19] and in assay [7] was > 100 µM each time. Besides, the TGI in [8], in assay [9], in [10], in assay [11], in [13] and in [14] was > 100 µM each time. Also, the TGI in assay [15], in assay [16], in assay [17] and in [18] was > 100 µM throughout.
With `COc1ccc(CCc2ccc(O)c(C(=O)O)c2)cc1OC`, the TGI in assay [1], in assay [2], in assay [3], in assay [4], in [5] and in assay [6] was > 100 µM in each case. The TGI in assay [19], in assay [8], in assay [9], in assay [10], in assay [11] and in [12] was > 100 µM in each case. In addition, the TGI in assay [13], in assay [14], in [15], in assay [16], in assay [17] and in assay [18] was > 100 µM throughout.
Consider `NC12CC3CC4C1CC1CC2C(C3)C4(N)C1`, for which the TGI in assay [1], in assay [2], in assay [3], in assay [4], in [19] and in assay [7] was > 100 µM each time. Moreover, the TGI in assay [8], in assay [9], in assay [10], in assay [11], in [12] and in [13] was > 100 µM each time. Also, the TGI in assay [14], in assay [15], in [16], in [17] and in assay [18] was > 100 µM throughout.
